Test results published in patent US5118346A, “Biocidally active compounds” (Ciba-Geigy Corporation, priority 1988, dated 1992).
Where two headings read alike, the source gives them in different places.

Experiments:
[1] = tested on: Aspergillus niger; assay: Determination of the MIC against fungi, agar incorporation test; format: cell-based; conditions: for MIC: read-out: MIC against fungi, strain A
Procedure: (§1) Strains: A) Aspergillus niger, B) Sacharomyces cerevisiae, C) Penicillium funiculosum, D) Chaetomium globosum, E) Aureobasidium pullulans and F) Coniophora puteana.
(§2) The investigation is carried out by the known agar incorporation test in malt extract agar (Merck). For the inhibition, the various compounds are in each case added in an amount such that concentrations of 10, 50 and 100 mg/1 result in the agar. The concentrations (mg/1) required for inhibiting the growth of the fungi (starting from fungus spores dripped on) are illustrated in Table 2.

[2] = tested on: Chaetomium globosum; assay: as above; format: cell-based; conditions: for MIC: read-out: MIC against fungi, strain D
Procedure: as §1, §2

[3] = tested on: Coniophora puteana; assay: as above; format: cell-based; conditions: for MIC: read-out: MIC against fungi, strain F
Procedure: as §1, §2

[4] = tested on: Aureobasidium pullulans; assay: as above; format: cell-based; conditions: for MIC: read-out: MIC against fungi, strain E
Procedure: as §1
(§3) The investigation is carried out by the known agar incorporation test in malt extract agar (Merck).

[5] = tested on: Penicillium funiculosum; assay: as above; format: cell-based; conditions: for MIC: Talaromyces funiculosus, read-out: MIC against fungi, strain C
Procedure: as §1, §3

[6] = tested on: Sacharomyces cerevisiae; assay: as above; format: cell-based; conditions: for MIC: read-out: MIC against fungi, strain B
Procedure: as §1, §3

[7] = tested on: barnacles; assay: Anti-fouling paint exposure in the North Sea; conditions: 61/2 weeks, 0 = completely covered with growth, 10 = completely free
Procedure: (§4) To test the activity against growth on objects immersed in the sea, the compound according to Example 1 is incorporated into anti-fouling paints. An anti-fouling paint such as is known to the expert and which is based on vinyl chloride copolymer/rosin (2/1 part by weight) with a pigment volume concentration of about 40%, and a second anti-fouling paint of similar make-up but with a higher rosin content (vinyl chloride copolymer/rosin=1/1) are prepared. The compound according to Example 1 is incorporated into these paints, the paint is brushed onto specimen sheets and, after drying (10 days), the sheets are suspended in the North Sea. The corresponding paints but without adding of the product are exposed in the same way for comparison. On a rating scale of 0 (=completely covered with growth) to 10 (=completely free from growth), the following results are obtained after exposure for 61/2 weeks (growth by hydroids=HY; growth by barnacles=BA): […]

[8] = tested on: hydroids; assay: Anti-fouling paint exposure in the North Sea; conditions: 61/2 weeks, 0 = completely covered with growth, 10 = completely free
Procedure: as §4

[9] = tested on: mixture of algae Chlorella vulgaris, Chlorella spec. and Scenedesmus obliques; assay: Algicide test in polyisobutylene roof sheeting; format: cell-based; conditions: for algae growth after 6 weeks: comparison film 2; for algae growth after 3 weeks: comparison film 2-3
Procedure: To test the activity against attack by algae, various concentrations, which can be seen from Table 3, of the compound according to Example 1 are incorporated into roof sheeting consisting of polyisobutylene. A roof sheeting without biocide is investigated as a comparison.
A 1 cm^2 piece of film from each test strip is kept in water for 5 days, in each case placed on an algae agar plate and inoculated with 0.1 ml of a 1+1+1 mixture of 14-day cultures of the algae Chlorella vulgaris and Chlorella spec. (isolated from damage cases in practice) and Scenedesmus obliques, which had been diluted 1/10 in saline.
After 3 weeks, the plates are evaluated and the films are placed in fresh agar and inoculated again.
Evaluation of the growth after 3 and 6 weeks under artificial light is performed in accordance with the following scheme.
2=partial growth on the film
3=growth up to the edge of the film
4=inhibiting aerola around the film <5 mm
5=inhibiting aerola around the film >5 mm
Example 19 is repeated, except that instead of the stated concentrations of compound according to Example 1 alone, a combination of 1% by weight of the compound according to Example 1 and 0.07% by weight of 2-methylthio-4-t-butylamino-6-cyclopropylamino-s-triazine is used.

[10] = tested on: Coniophora puteana; assay: Limit of activity against wood-destroying Basidiomycetes (EN 113); design: species or system Coniophora puteana (Schumacher ex Fries) Karsten; conditions: Coniophora puteana strain 91, pine, isopropanol/water (1:1), 16 weeks
Source text: (§5) Determination of the limit of the activity against wood-destroying Basidiomycetes bred on agar (in accordance with EN 113). The test methods described in this European Standard is a laboratory method which forms a basis for evaluation of the activity of a wood preservative against wood-destroying Basidiomycetes.
Coniophora puteana (Schumacher ex Fries) Karsten, strain FPRL 11E, for soft timbers=strain 91, Breeding of the strain and composition of the nutrient medium were as described in EN 113.
(§6) Solutions of isopropanol/water (1:1) containing 0.2%, 0.5%, 1%, 2% and 5% of active substance according to Example 1 are prepared.
(§7) The specimen woods of pine, nominal dimensions: 50 mm×25 mm×15 mm, are obtained and prepared as described in EN 113.
(§8) The impregnation according to EN 113 ensures complete thorough impregnation of the specimen woods with the wood preservative solution.
(§9) The amount of preservative absorbed is converted into weight per unit volume of the wood. […]
(§10) The limit of the activity of a wood preservative is determined by the two amounts of wood preservative which correspond to the lowest concentration which preserves the wood and the next lowest concentration in the series, at which the wood is no longer adequately preserved. […]

[11] = tested on: Poria placenta; assay: as above; design: species or system Poria placenta (Fries) Cooke sensu. J. Eriksson; conditions: Poria placenta strain 96, pine, isopropanol/water (1:1), 16 weeks
Source text: as §5
Poria placenta (Fries) Cooke sensu. J. Eriksson, strain SPRL 280, for soft timbers=strain 96, Breeding of the strain and composition of the nutrient medium were as described in EN 113.
as §6, §7, §8, §9, §10

[12] = tested on: Gleophyllum trabeum; assay: as above; design: species or system Gloeophyllum trabeum (Persoon ex Fries) Murrill; conditions: Gleophyllum trabeum strain 94, pine, 16 weeks
Source text: as §5
Gloeophyllum trabeum (Persoon ex Fries) Murrill, strain […], for soft timbers=strain 94, Breeding of the strain and composition of the nutrient medium were as described in EN 113.
as §6, §7, §8, §9, §10

[13] = tested on: wood-destroying fungi; assay: Limit of activity against wood-destroying Basidiomycetes (EN 113), summary
Source text: as §5

[14] = malt extract agar, tested 10, 50, 100 mg/l
[15] = Penicillium funiculosum, malt extract agar, tested 10, 50, 100 mg/l
[16] = Sacharomyces cerevisiae, malt extract agar, tested 10, 50, 100 mg/l

SMILES	MIC [1, 14]	MIC [4, 14]	MIC [5, 15]	MIC [6, 16]	MIC [1]	MIC [2, 14]	MIC [3, 14]	other results
CCCCCCCCCCCCCC[P+](CCCC)(CCCC)CCCC [Example 1, Tri-n-butyl-n-tetradecylphosphonium tetrafluoborate]	50 µg/mL	50 µg/mL	10 µg/mL	10 µg/mL	–	–	–	MIC against fungi, strain D [2, 14]: 10 µg/mL; MIC against fungi, strain F [3, 14]: 10 µg/mL; growth by barnacles (BA), rating ([7]; Vinyl/rosin 1:1 paint with additive, without additive BA 0): 10; growth by barnacles (BA), rating ([7]; Vinyl/rosin 2:1 paint with additive, without additive BA 5): 8; growth by hydroids (HY), rating ([8]; Vinyl/rosin 1:1 paint with additive, without additive HY 0): 4; growth by hydroids (HY), rating ([8]; Vinyl/rosin 2:1 paint with additive, without additive HY 5): 8; algae growth after 6 weeks ([9]; 0,1 % by weight in film): 4 (inhibiting aerola around the film <5 mm); algae growth after 3 weeks ([9]; 0,1 % by weight in film): 4 (inhibiting aerola around the film <5 mm); algae growth after 6 weeks ([9]; 0,5 % by weight in film): 4 (inhibiting aerola around the film <5 mm); algae growth after 3 weeks ([9]; 0,5 % by weight in film): 4 (inhibiting aerola around the film <5 mm); algae growth after 6 weeks ([9]; 1 % by weight in film): 4 (inhibiting aerola around the film <5 mm); algae growth after 3 weeks ([9]; 1 % by weight in film): 4 (inhibiting aerola around the film <5 mm); Effective concentration [10]: 0.5-1.0%; Effective concentration [11]: 1.0-2.0%; Take-up (limit of the activity) [12]: ≤ 1.0 kg/m^3; Effective concentration ([12]; isopropanol/water (1:1)): ≤ 0.2%; activity against wood-destroying fungi [13]: highly effective
CCCCCCCCCCCCCC[P+](CCCC)(CCCC)CCCC [Example 2, Tri-n-butyl-n-tetradecylphosphonium hexafluophosphate]	–	–	–	–	–	–	–	MIC against fungi, strain A [1, 14]: 100 µg/mL; MIC against fungi, strain D [2, 14]: 100 µg/mL; MIC against fungi, strain F [3, 14]: 100 µg/mL; MIC against fungi, strain E [4, 14]: 50 µg/mL; MIC against fungi, strain C [5, 15]: 10 µg/mL; MIC against fungi, strain B [6, 16]: 10 µg/mL
CCCCCCCCCCCC[P+](c1ccccc1)(c1ccccc1)c1ccccc1 [Example 3, Triphenyl-n-dodecylphosphonium tetrafluoborate]	–	–	–	–	100 µg/mL	–	–	MIC [2]: 50 µg/mL; MIC [3]: 50 µg/mL; MIC [4]: 10 µg/mL; MIC [5]: 10 µg/mL; MIC [6]: 50 µg/mL
CCCCCCCCCCCCCC[N+](CCCC)(CCCC)CCCC [Example 5, Tri-n-butyl-n-tetradecylammonium tetrafluoborate]	–	50 µg/mL	50 µg/mL	50 µg/mL	100 µg/mL	50 µg/mL	–	MIC [3]: 100 µg/mL
CCCCCCCCCCCC[N+](CCO)(CCO)Cc1ccccc1 [Example 6, Bis(hydroxyethyl)benzyl-n-dodecylammonium tetrafluoborate]	–	10 µg/mL	10 µg/mL	50 µg/mL	> 100 µg/mL	50 µg/mL	50 µg/mL	–
CCCCCCCCCCCC[N+](CC)(CC)CC [Example 7]	> 100 µg/mL	50 µg/mL	50 µg/mL	> 100 µg/mL	–	100 µg/mL	50 µg/mL	–
CCCCCCCCCCCCCC[N+](CC)(CC)CC [Example 8]	50 µg/mL	–	–	–	–	50 µg/mL	50 µg/mL	–
CCCCCCCCCCCCCCCCCC[N+](CC)(CC)CC [Example 9]	> 100 µg/mL	50 µg/mL	50 µg/mL	> 100 µg/mL	–	50 µg/mL	50 µg/mL	–
CCCCCCCCCCCCCC[N+](CCC)(CCC)CCC [Example 10]	100 µg/mL	10 µg/mL	50 µg/mL	100 µg/mL	–	50 µg/mL	10 µg/mL	–
CCCCCCCCCCCCCCCC[N+](CC)(CC)CC [Example 13]	100 µg/mL	50 µg/mL	10 µg/mL	100 µg/mL	–	100 µg/mL	10 µg/mL	–
CCCCCCCCCCCC[N+]1(Cc2ccccc2)CCOCC1 [Example 14]	–	–	50 µg/mL	–	> 100 µg/mL	–	50 µg/mL	MIC [2]: 100 µg/mL; MIC [4]: 10 µg/mL; MIC [6]: > 100 µg/mL
